The record followed here is US11564923B2, “Compounds and pharmaceutical compositions thereof for the treatment of inflammatory disorders” (Galapagos NV, priority 2017, dated 2023).

Assay [1] deals with T1, Recombinant human JAK1 (catalytic domain, amino acids 866-1154) (Homo sapiens, UniProt P23458).
T1 construct: catalytic domain, amino acids 866-1154
As to the kind of experiment: JAK1 inhibition assay. In kind it is biochemical. The settings on record: read-out: JAK1 potency IC50.

In assay [2] the target is Recombinant human JAK3 catalytic domain (amino acids 781-1124) (Homo sapiens, UniProt P52333). The experiment in a line: JAK3 inhibition assay. In kind it is biochemical. The procedure, abridged: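 Radiometric kinase reaction run 45 min at 30° C., stopped with phosphoric acid; activity as vehicle cpm minus 10 μM staurosporine cpm.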
Sequence of Recombinant human JAK3 catalytic domain (amino acids 781-1124) (P52333 781-1124): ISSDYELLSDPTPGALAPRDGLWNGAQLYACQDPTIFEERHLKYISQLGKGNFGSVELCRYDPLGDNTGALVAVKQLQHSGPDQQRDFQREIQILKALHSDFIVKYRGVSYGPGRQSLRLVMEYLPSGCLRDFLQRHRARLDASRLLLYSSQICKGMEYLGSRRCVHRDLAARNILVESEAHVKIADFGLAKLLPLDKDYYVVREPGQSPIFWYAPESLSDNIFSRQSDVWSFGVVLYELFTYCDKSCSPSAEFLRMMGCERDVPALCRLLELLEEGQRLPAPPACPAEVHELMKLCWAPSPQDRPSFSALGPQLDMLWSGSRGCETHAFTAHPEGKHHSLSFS
The target in assay [3] is T2, Recombinant human JAK2 (catalytic domain, amino acids 808-1132) (Homo sapiens, UniProt O60674).
T2 construct: catalytic domain, amino acids 808-1132
T2 sequence (O60674 808-1132): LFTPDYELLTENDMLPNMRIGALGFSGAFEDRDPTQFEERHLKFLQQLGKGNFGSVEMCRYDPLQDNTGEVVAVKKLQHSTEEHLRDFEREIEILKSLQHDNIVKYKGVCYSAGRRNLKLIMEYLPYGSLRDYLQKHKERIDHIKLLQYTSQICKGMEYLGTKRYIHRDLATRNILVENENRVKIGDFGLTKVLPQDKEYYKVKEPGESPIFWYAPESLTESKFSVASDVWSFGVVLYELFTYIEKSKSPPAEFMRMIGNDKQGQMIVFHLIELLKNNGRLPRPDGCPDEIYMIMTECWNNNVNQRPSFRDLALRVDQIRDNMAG
The experiment in a line: JAK2 inhibition assay. Note: 0.7 µM ATP. Particulars: read-out: JAK2 potency IC50. In kind it is biochemical.

Assay [4] deals with T3, Recombinant human TYK2 catalytic domain (amino acids 871-1187) (Homo sapiens, UniProt P29597).
T3 construct: catalytic domain (amino acids 871-1187)
T3 sequence (P29597 871-1187): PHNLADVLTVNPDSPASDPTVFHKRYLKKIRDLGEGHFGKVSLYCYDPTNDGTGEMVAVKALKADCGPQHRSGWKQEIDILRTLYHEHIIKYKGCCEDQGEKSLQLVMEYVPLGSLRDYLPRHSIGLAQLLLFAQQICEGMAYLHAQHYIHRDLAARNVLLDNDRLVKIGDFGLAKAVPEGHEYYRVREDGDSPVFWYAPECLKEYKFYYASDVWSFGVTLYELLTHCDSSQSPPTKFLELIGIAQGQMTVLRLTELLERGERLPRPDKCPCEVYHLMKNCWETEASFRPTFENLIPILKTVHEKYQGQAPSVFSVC
As to the kind of experiment: TYK2 radioactive assay polyGT substrate. Note: 0.1 µM ATP. In kind it is biochemical. The procedure, abridged:
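Reaction at 30° C. for 120 min, ended with 150 mM phosphoric acid, washed, counted; percent inhibition scaled between vehicle and 10 μM staurosporine cpm.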

Assay [5] has as its system IL-12 activation of STAT4 in NK-92 cells. The experiment in a line: IL-12 activation of STAT4 in NK-92 cells using MSD as readout. In kind it is cell-based. The settings on record: Homo sapiens, NK92; NK-92 cells, rhIL-12 25 ng/mL, MSD readout; read-out: IL12 pSTAT4 IC50. The method, then: IL-2 is added freshly to the medium with each medium refreshment step. Cells are cultured in a humidified incubator at 37° C. 5% CO2.
NK-92 cells are pre-incubated with test compounds or vehicle for 30 min at 37° C. 5% CO2. […] NK-92 cells are triggered with rhIL-12 for 45 min at 37° C. 5% CO2.
After 45 min of cytokine stimulation the cells are lysed by addition of 50 μL ice-cold lysis buffer (supplemented with the MSD kit). Plates are frozen at −80° C. for minimal 1 hour to lyse the cells completely. After thawing the levels of phospho-STAT4 are quantified using the Phospho-STAT4 (Tyr693) kit (MSD, Catalogue number K150PAD-2) according to the manufacturer's instructions. Electroluminescent signal is measured on the MSD reader.
The percentage inhibition is calculated as: […]
RLU (trigger/veh): Relative lumescent signal determined in presence of vehicle and trigger
RLU (test compound): Relative luminescent signal determined in presence of test compounds)
PIN values are plotted for compounds tested in dose-response and IC50 values are derived using LIMS Software applying non-linear regression (sigmoidal) curve fitting. The data are expressed as the average IC50 from different experiments.

Assay [6] deals with IFNα activation of STAT1 in PBMC. As to the kind of experiment: IFNα activation of STAT1 in PBMC. The format is cell-based. Particulars: Homo sapiens; IFNα activation of STAT1 in PBMC; average IC50; read-out: IFNα signaling inhibitory potency IC50. The procedure, abridged: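 Human PBMC, with red cells lysed by NH4Cl, were pre-treated with compound for 30 min at 37 °C and 5% CO2. They were then stimulated for 30 min with recombinant human IFNα at 5 ng/mL final.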

The subject of assay [7] is IL-12 activation of STAT4 in NK-92 cells. As to the kind of experiment: IL-12 activation of STAT4 in NK-92 cells using AphaLISA SureFire technology. Particulars: Homo sapiens, NK92; IL-12 activation of STAT4 in NK-92 cells, AlphaLISA SureFire; average IC50; read-out: IL12 pSTAT4 IC50. The format is cell-based. The procedure, abridged:
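NK-92 cells, starved of rhIL-2 overnight, were stimulated with rhIL-12 for 30 min at 37 °C with test compounds, then lysed. Phospho-STAT4 (Tyr693) was read by AlphaLISA SureFire. Percent inhibition versus the vehicle-plus-trigger signal was fitted by sigmoidal nonlinear regression to give IC50, averaged over experiments.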
For orientation: Alpha assays give light when donor and acceptor beads are brought close together.

T1 sequence (P23458 866-1154): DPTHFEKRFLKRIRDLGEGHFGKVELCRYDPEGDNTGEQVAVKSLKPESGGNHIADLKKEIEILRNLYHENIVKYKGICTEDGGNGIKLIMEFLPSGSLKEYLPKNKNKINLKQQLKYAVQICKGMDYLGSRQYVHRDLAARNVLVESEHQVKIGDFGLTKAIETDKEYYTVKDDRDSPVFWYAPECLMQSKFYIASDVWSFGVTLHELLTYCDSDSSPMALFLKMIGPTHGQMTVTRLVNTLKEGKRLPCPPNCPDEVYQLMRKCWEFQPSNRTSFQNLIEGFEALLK

In the case of `CN(c1cc(Nc2cc(N)ncn2)c2ncn(C)c2n1)C1CCOCC1(C)C` (stereo not shown) [Compound 11, N7-(6-Amino-pyrimidin-4-yl)-N5-(3,3-dimethyl-tetrahydro-pyran-4-yl)-3,N5-dimethyl-3H-imidazo[4,5-b]pyridine-5,7-diamine], the half-maximal inhibitory concentration (IC50) (commonly the concentration at which inhibition is half-maximal) in assay [1] was found to be 27.2 nM; in assay [2] it was 143 nM; in assay [3], 4.75 nM; in assay [4], 1.81 nM; in assay [5], 377 nM.

For `C[C@H](N(C)c1cc(Nc2cc(N)ncn2)c2ncn(C)c2n1)C(C)(C)C` [Compound 12, N7-(6-aminopyrimidin-4-yl)-N5,3-dimethyl-N5-[(1S)-1,2,2-trimethylpropyl]imidazo[4,5-b]pyridine-5,7-diamine], the IC50 was found to be 26.9 nM in assay [1]; 36.7 nM in assay [2]; 3.04 nM in assay [3]; 1.42 nM in assay [4]; 540 nM in assay [5]; 25 nM in assay [6].

With `CN(c1cc(Nc2cc(N)ncn2)c2ncn(C)c2n1)c1c(F)cc(C#N)cc1C1CC1` [Compound 14, 4-{[7-(6-Amino-pyrimidin-4-ylamino)-3-methyl-3H-imidazo[4,5-b]pyridin-5-yl]-methyl-amino}-3-cyclopropyl-5-fluoro-benzonitrile], the IC50 came to 91.4 nM in assay [1]; 279 nM in assay [2]; 17 nM in assay [3]; 3.83 nM in assay [4]; 1500 nM in assay [5].

On to `C[C@H]1COCC[C@@H]1N(C)c1cc(Nc2cc(N)ncn2)c2ncn(C)c2n1` [Compound 17, N7-(6-Amino-pyrimidin-4-yl)-3,N5-dimethyl-N5-((3R,4S)-3-methyl-tetrahydro-pyran-4-yl)-3H-imidazo[4,5-b]pyridine-5,7-diamine], for which the IC50 is 64.6 nM in assay [1]; 237 nM in assay [2]; 14.6 nM in assay [3]; 10.2 nM in assay [4]; 905 nM in assay [5].

Turning to `CN(c1cc(Nc2cc(N)ncn2)c2ncn(C)c2n1)C12CC(C1)C2` [Compound 18, N7-(6-Amino-pyrimidin-4-yl)-N5-bicyclo[1.1.1]pent-1-yl-3,N5-dimethyl-3H-imidazo[4,5-b]pyridine-5,7-diamine], the IC50 in assay [1] stood at 294 nM; in assay [2] it was 187 nM; in assay [3], 31.5 nM; in assay [4] it was 30.5 nM; in assay [5] it was 4680 nM.

As for `CCNC(=O)c1ccc(Nc2cc(Oc3cnc(C#N)cc3C)nc3c2ncn3C)cn1` [Compound 26, 5-[5-(6-Cyano-4-methyl-pyridin-3-yloxy)-3-methyl-3H-imidazo[4,5-b]pyridin-7-ylamino]-pyridine-2-carboxylic acid ethylamide], the IC50 in assay [1] was 338 nM; in assay [3] it was 873 nM; in assay [4], 74 nM; in assay [5] it was 1530 nM.

For `CC(Oc1cc(Nc2cc(N)ncn2)c2ncn(C)c2n1)C1CC1` (stereo not shown) [Compound 72, N4-[5-(1-cyclopropylethoxy)-3-methyl-imidazo[4,5-b]pyridin-7-yl]pyrimidine-4,6-diamine], the IC50 in assay [7] turned out to be 57.2 nM; in assay [4], 1.41 nM; in assay [5], 27.7 nM; in assay [6] it was 124 nM.

As to `Cc1cc(C#N)ncc1Oc1cc(Nc2ccc(C(=O)N(C)C)nn2)c2ncn(C)c2n1` [Compound 73, 6-[[5-[(6-cyano-4-methyl-3-pyridyl)oxy]-3-methyl-imidazo[4,5-b]pyridin-7-yl]amino]-N,N-dimethyl-pyridazine-3-carboxamide], the IC50 in assay [7] was determined as 158 nM; in assay [4], 3.44 nM; in assay [5], 199 nM; in assay [6], 81 nM.

As to `CCNC(=O)c1ccc(Nc2cc(NC(C3CC3)C(F)(F)F)nc3c2ncn3C)cn1` (stereo not shown) [Compound 91, 5-[[5-[(1-cyclopropyl-2,2,2-trifluoro-ethyl)amino]-3-methyl-imidazo[4,5-b]pyridin-7-yl]amino]-N-ethyl-pyridine-2-carboxamide], the IC50 in assay [1] was found to be 157 nM; in assay [2], 208 nM; in assay [3], 42 nM; in assay [4], 24.1 nM; in assay [5], 3150 nM.
